Assay results as given in patent US12522606B2, “Modified pyrrolo- and pyrazolo-pyrimidines for prostate cancer therapy” (University of Washington, priority 2020, dated 2026).

Legend:
[1] = background statement; cited from earlier work
[2] = background statement; cited from earlier work; remark: listed apart in the source
[3] = in vitro; settings: human, CRL-8155 lymphoblastoid cell line
Description: (§1) HepG2 is hepatoma liver tumor cell line. CRL8155 is lymphoblastoid cell line.

[4] = in vitro; settings: human, HepG2 hepatoma cell line
Description: as §1

[5] = PK Oral (MMV); assay type: in vivo; settings: for Cmax / Tmax: in vivo
[6] = tested on: LNCaP95; test: MTT proliferation assay, LNCaP95; assay type: cell-based; settings: Homo sapiens, LNCaP-95; for EC50: Table 1, LNCaP95 (AR+ PCa), unit inferred; for inhibition at 10 µM: read-out: MTT % inhib @ 10 μM LNCaP95
Description: Anti-tumor activity was determined by screening a series of compounds against the castrate-resistant, androgen-receptor-positive, prostate cancer cell line LNCaP95. […] Inhibition of proliferation was determined based on the level of LNCaP95 cell growth suppression using an MTT assay (NAD(P)H-dependent cellular oxidoreductase enzymatic activities)) read at 72 and 96 hours after addition of the compounds. […] Each cell line was be tested in quadruplicate.

[7] = tested on: PC3; test: MTT proliferation assay, PC3; settings: Homo sapiens; for inhibition at 10 µM: PC-3, read-out: MTT % inhib @ 10 μM PC3; for EC50: read-out: EC50 PC3
[8] = tested on: LNCaP cells; test: Cell death in LNCaP cells, alone or in combination, 24 h (FIG. 6); assay type: cell-based
Description: FIG. 6 evaluation of Compound 1 and metformin in LNCaP cells. LNCaP cells were treated with Compound 1, oligomycin (Oli), 2-deoxy-d-glucose (2-DG), or metformin (Met), alone or in combination for 24 h.
FIGS. 2-4 provide additional results on the activity of the compounds of the disclosure. […] Co-administration of Compound 1 and metformin is illustrated in FIG. 6. LNCaP cells were treated with Compound 1, oligomycin (Oli), 2-deoxy-d-glucose (2-DG), or metformin (Met), alone or in combination for 24 h. […] None of compounds were sufficient to kill cells under the same conditions on their own.

[9] = Plasma protein binding, mouse; assay type: in vitro ADME
[10] = tested on: prostate cancer tumor; settings: 60 mg/kg, 2× daily; cited from earlier work

EC50 [6]	EC50 [7]	fraction unbound [9]	SMILES	CC50 [3]	CC50 [4]	inhibition at 10 µM [6]	inhibition at 10 µM [7]	further results
8 µM	> 20 µM	0.0017	CNc1ncnc2c1c(-c1ccc3cc(OC4CC4)ccc3c1)cn2CC(C)(C)O [Example 15, 1-(5-(6-cyclopropoxynaphthalen-2-yl)-4-(methylamino)-7H-pyrrolo[2,3-d]pyrimidin-7-yl)-2-methylpropan-2-ol]	> 80 µM	> 80 µM	53.2%	2.8%	
3 µM	> 20 µM	0.0077	CCOc1ccc2cc(-c3cn(CC(C)(C)OC)c4ncnc(NC)c34)ccc2c1 [Example 18, 5-(6-ethoxynaphthalen-2-yl)-7-(2-methoxy-2-methylpropyl)-N-methyl-7H-pyrrolo[2,3-d]pyrimidin-4-amine]	> 80 µM	> 80 µM	44.9%	21%	
10 µM	> 20 µM		CNc1ncnc2c1c(-c1cccc(Cl)c1)cn2CC(C)(C)OC [Example 22, 5-(3-chlorophenyl)-7-(2-methoxy-2-methylpropyl)-N-methyl-7H-pyrrolo[2,3-d]pyrimidin-4-amine]	> 80 µM	> 80 µM	40.1%	4.3%	
4 µM	> 20 µM		CC(C)(O)Cn1cc(-c2ccc3cc(OC4CC4)ccc3c2)c2c(NCCOCCOCCOCCN)ncnc21 [Example 28, 1-(4-(2-(2-(2-(2-aminoethoxy)ethoxy)ethoxy)ethylamino)-5-(6-cyclopropoxynaphthalen-2-yl)-7H-pyrrolo[2,3-d]pyrimidin-7-yl)-2-methylpropan-2-ol]	15.4 µM	30.7 µM	43%	-8.3%	
10 µM	> 20 µM		CCOCCNc1ncnc2c1c(-c1ccc3cc(OCC)ccc3c1)cn2CC(C)(C)O [Example 31, 1-(4-(2-ethoxyethylamino)-5-(6-ethoxynaphthalen-2-yl)-7H-pyrrolo[2,3-d]pyrimidin-7-yl)-2-methylpropan-2-ol]			34.9%	14.9%	AUC ([5]; dose 25 mg/kg): 1724 µmol·min/L; Cmax ([5]; dose 25 mg/kg): 7.8 µM; Tmax ([5]; dose 25 mg/kg): 1 h
3 µM	> 20 µM	0.0069	CNc1ncnc2c1c(-c1ccc3cc(OC(C)C)ccc3c1)cn2CC(C)(C)OC [Example 32, 5-(6-isopropoxynaphthalen-2-yl)-7-(2-methoxy-2-methylpropyl)-N-methyl-7H-pyrrolo[2,3-d]pyrimidin-4-amine]			5.1%	14.6%	
5 µM	> 20 µM	0.0064	CNc1ncnc2c1c(-c1ccc(-c3ccc(Br)cc3)cc1)cn2CC(C)(C)OC [Example 33, 5-(4′-bromobiphenyl-4-yl)-7-(2-methoxy-2-methylpropyl)-N-methyl-7H-pyrrolo[2,3-d]pyrimidin-4-amine]			30.7%	11.4%	

Second part, the compound before the results:

SMILES	EC50 [6]	EC50 [7]	fraction unbound [9]	CC50 [3]	CC50 [4]	inhibition at 10 µM [6]	inhibition at 10 µM [7]	further results
CC(C)(C)n1nc(-c2cccc3ccccc23)c2c(N)ncnc21 [Example 1NA-PP1]								solubility [1]: low solubility; metabolism [2]: quickly metabolized
CC(C)(C)n1nc(Cc2cccc3ccccc23)c2c(N)ncnc21 [Example 1NM-PP1]								solubility [1]: low solubility; metabolism [2]: quickly metabolized
COCCOc1ncnc2c1c(-c1ccc3cc(OC4CC4)ccc3c1)cn2CC(C)(C)O [Example 2, 1-(5-(6-cyclopropoxynaphthalen-2-yl)-4-(2-methoxyethoxy)-7H-pyrrolo[2,3-d]pyrimidin-7-yl)-2-methylpropan-2-ol]	6 µM	> 20 µM		> 40 µM	> 40 µM	32%	12.8%	AUC ([5]; dose 30.8 mg/kg): 822 µmol·min/L; Cmax ([5]; dose 30.8 mg/kg): 34.4 µM; Tmax ([5]; dose 30.8 mg/kg): 1 h
O=CC[C@@H](O)[C@H](O)[C@H](O)CO [Example 2-DG, 2-deoxy-d-glucose, reference compound]								cell death in combination with oligomycin or metformin [8]: cause cell death
CCOc1ccc2cc(-c3cn(CC(C)(C)O)c4ncnc(OCCOC)c34)ccc2c1 [Example 3, 1-(5-(6-ethoxynaphthalen-2-yl)-4-(2-methoxyethoxy)-7H-pyrrolo[2,3-d]pyrimidin-7-yl)-2-methylpropan-2-ol]	7 µM	> 20 µM				36.5%	2.9%	AUC ([5]; dose 25 mg/kg): 2559 µmol·min/L; Cmax ([5]; dose 25 mg/kg): 5.1 µM; Tmax ([5]; dose 25 mg/kg): 0.667 h
COCCOc1ncnc2c1c(-c1ccc(-c3ccccc3)cc1)cn2CC(C)(C)O [Example 4, 1-(5-(biphenyl-4-yl)-4-(2-methoxyethoxy)-7H-pyrrolo[2,3-d]pyrimidin-7-yl)-2-methylpropan-2-ol]	5 µM	> 20 µM		> 80 µM		36.3%	13%	
CCOc1ccc2cc(-c3cn(CC(C)(C)O)c4ncnc(OCC)c34)ccc2c1 [Example 5, 1-(4-ethoxy-5-(6-ethoxynaphthalen-2-yl)-7H-pyrrolo[2,3-d]pyrimidin-7-yl)-2-methylpropan-2-ol]	5 µM	> 20 µM		> 80 µM	> 80 µM	50.9%	-3.2%	
CCOc1ncnc2c1c(-c1ccc3cc(OC4CC4)ccc3c1)cn2CC(C)(C)O [Example 6, 1-(5-(6-cyclopropoxynaphthalen-2-yl)-4-ethoxy-7H-pyrrolo[2,3-d]pyrimidin-7-yl)-2-methylpropan-2-ol]	10 µM	> 20 µM		> 40 µM	> 40 µM	20.3%	10.1%	AUC ([5]; dose 24.6 mg/kg): 400 µmol·min/L; Cmax ([5]; dose 24.6 mg/kg): 17.6 µM; Tmax ([5]; dose 24.6 mg/kg): 1 h
CCOc1ccc2cc(-c3cn(CC(C)(C)O)c4ncnc(NC)c34)ccc2c1 [Example 11, 1-(5-(6-ethoxynaphthalen-2-yl)-4-(methylamino)-7H-pyrrolo[2,3-d]pyrimidin-7-yl)-2-methylpropan-2-ol]	3 µM	> 20 µM	0.0019	> 80 µM	> 80 µM	55.6%	1.6%	
CNc1ncnc2c1c(-c1ccc(-c3ccccc3)cc1)nn2CC(C)(C)O [Example 12, 1-(3-(biphenyl-4-yl)-4-(methylamino)-1H-pyrazolo[3,4-d]pyrimidin-1-yl)-2-methylpropan-2-ol]	12 µM	> 20 µM		> 80 µM	> 80 µM	36.7%	8.4%	
CNc1ncnc2c1c(-c1ccc(-c3ccccc3)cc1)cn2CC(C)(C)O [Example 13, 1-(5-(biphenyl-4-yl)-4-(methylamino)-7H-pyrrolo[2,3-d]pyrimidin-7-yl)-2-methylpropan-2-ol]	12 µM	> 20 µM		> 80 µM	> 80 µM	40.9%	-4.3%	
CCOc1ccc2cc(-c3nn(CC(C)(C)O)c4ncnc(NC)c34)ccc2c1 [Example 14, 1-(3-(6-ethoxynaphthalen-2-yl)-4-(methylamino)-1H-pyrazolo[3,4-d]pyrimidin-1-yl)-2-methylpropan-2-ol]	12 µM	> 20 µM	0.0079	> 80 µM	> 80 µM	42.7%	-3.5%	
Fc1ccc(Cl)cc1-c1nc(Nc2ccncc2)c2nccnc2n1 [SD-208]								prostate cancer tumor growth in vivo [10]: decrease in prostate cancer tumor growth
